Measured values published in patent publication US12622912B2, “Application of pyrido[1,2-a]pyrimidinone analog” (GUANGZHOU JOYO PHARMATECH CO., LTD, priority 2021, dated 2026).
Read-outs that look alike come from different tables or passages of the source.

How the values were obtained:
[1] = test system: BT-474 PIK3CA-mutated breast cancer cell line; test: CTG cell proliferation, BT-474; type: cell-based, human; settings: BT-474, CTG, 72 hours, read-out: Absolute IC50
Description: (2) Reagents • 1) FBS (fetal bovine serum) (purchased from ExCell, product number: FND500); • 2) DMEM medium (purchased from Gibco, product number: C11995500BT); • 3) Insulin (purchased from Gibco, product number: EPX010-12003-901); • 4) RPMI1640 medium (purchased from Hyclone, product number: SH30809.01); • 5) MEM medium (purchased from Hyclone, product number: SH30024.01). (3) Test Article and Positive Control Article • Test article: compound I; • Positive control article: Cisplatin, Molecular weight: 300.05; Solvent: PBS (phosphate buffer saline); Storage condition: 2-8° C.; Supplier: Qilu Pharmaceutical. (4) The CTG Method was Used to Determine the Cell Proliferation IC50 of the Compound.
(§1) Step 1: Cells in exponential growth phase were harvested, and viable cells were counted with a Vi-Cell XR cytometer. The cell suspension was adjusted to an appropriate concentration with medium. 90 μL of cell suspension was added to each well of a 96-well cell culture plate, and the final cell concentration was 1500-6000 cells/well.
Step 2: The initial concentration of administration of compound I was 3 μM, and the initial concentration of administration of the control drug Cisplatin was 100 μM, and serially diluted 3-fold, a total of 9 concentration gradients and a DMSO control, the final concentration of DMSO in each well was 0.1%, placed in a 37° C., 5% CO2 incubator for 72 hours.
Step 3: After 72 hours of drug treatment, 50 μL (½ culture volume) CTG solution that was melted and equilibrated to room temperature was added to each well according to the CTG operation instruction. […] After 10 minutes, the fluorescence signal value was measured with an Envision2104 plate reader.
(§2) Cell survival rate was calculated using the formula: Vsample/Vvehicle control×100%. Where, Vsample was the reading of the drug treatment group, and Vvehicle control was the average value of the solvent control group. GraphPad Prism 5.0 software was used, and a S-type dosage-survival rate curve was drawn using a nonlinear regression model and IC50 value was calculated.

[2] = target: T1, human PI3K p110α (E545K)/p85α (Homo sapiens, UniProt P42336, E545K); test: HTRF kinase activity assay, E545K mutant; type: biochemical
T1 construct: purchased Millipore 14-783
T1 sequence (P42336 whole entry E545K): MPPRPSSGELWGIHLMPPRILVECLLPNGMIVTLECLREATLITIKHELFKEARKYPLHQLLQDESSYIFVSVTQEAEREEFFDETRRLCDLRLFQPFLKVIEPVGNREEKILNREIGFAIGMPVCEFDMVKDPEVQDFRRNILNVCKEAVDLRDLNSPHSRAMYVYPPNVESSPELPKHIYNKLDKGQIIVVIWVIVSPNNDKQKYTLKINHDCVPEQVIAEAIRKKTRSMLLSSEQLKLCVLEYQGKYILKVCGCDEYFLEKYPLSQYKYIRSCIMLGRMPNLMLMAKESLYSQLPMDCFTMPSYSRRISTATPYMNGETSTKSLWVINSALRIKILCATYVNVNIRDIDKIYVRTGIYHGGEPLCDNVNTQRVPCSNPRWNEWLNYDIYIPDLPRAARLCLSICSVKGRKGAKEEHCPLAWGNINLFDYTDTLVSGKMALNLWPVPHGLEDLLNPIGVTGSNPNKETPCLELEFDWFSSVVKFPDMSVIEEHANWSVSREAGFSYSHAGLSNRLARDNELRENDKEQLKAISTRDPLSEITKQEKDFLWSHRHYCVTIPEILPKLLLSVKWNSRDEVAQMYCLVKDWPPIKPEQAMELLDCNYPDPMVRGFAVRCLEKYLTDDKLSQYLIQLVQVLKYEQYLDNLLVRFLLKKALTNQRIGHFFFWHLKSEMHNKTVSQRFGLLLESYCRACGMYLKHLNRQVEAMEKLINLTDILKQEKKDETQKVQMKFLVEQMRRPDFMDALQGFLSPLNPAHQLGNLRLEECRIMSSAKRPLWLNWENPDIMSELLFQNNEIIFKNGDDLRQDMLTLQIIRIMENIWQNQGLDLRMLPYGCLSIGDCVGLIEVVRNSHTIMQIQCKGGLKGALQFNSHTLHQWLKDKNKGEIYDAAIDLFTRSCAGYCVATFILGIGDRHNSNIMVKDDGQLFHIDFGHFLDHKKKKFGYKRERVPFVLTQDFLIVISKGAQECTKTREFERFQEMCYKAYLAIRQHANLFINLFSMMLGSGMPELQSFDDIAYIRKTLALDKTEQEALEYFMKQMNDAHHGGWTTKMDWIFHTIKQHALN
T1 sequence (P27986 whole entry partner): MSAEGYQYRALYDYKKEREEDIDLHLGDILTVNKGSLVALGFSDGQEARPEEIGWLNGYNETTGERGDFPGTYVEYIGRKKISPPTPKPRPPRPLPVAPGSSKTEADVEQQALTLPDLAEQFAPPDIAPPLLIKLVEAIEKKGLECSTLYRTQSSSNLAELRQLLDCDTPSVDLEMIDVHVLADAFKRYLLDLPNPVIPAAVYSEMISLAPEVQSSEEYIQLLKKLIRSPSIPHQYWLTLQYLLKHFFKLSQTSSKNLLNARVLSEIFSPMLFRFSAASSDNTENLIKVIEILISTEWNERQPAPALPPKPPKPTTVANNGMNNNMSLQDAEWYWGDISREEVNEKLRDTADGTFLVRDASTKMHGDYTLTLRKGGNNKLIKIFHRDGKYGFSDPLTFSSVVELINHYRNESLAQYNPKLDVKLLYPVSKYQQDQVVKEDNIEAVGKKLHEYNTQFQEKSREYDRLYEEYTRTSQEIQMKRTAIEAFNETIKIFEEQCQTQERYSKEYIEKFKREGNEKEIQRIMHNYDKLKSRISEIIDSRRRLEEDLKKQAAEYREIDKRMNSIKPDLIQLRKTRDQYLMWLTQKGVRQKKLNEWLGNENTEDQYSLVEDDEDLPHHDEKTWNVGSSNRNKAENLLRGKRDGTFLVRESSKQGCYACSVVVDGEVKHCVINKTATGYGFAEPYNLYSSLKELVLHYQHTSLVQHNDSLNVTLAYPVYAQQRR
Method: (§3) Main reagents: human PI3K p110α/p85α (purchased from Promega, Cat. No. V1721), human PI3K p110α (E542K)/p85α (purchased from Millipore, Cat. No. 14-782), human PI3K p110α (E545K)/p85α (purchased from Millipore, Cat. No. 14-783) and human PI3K p110α (H1047R)/p85α (purchased from Millipore, Cat. No. 14-792)
(§4) 1) Compound was prepared. The initial concentration of compound I was 100 nM, and was serially diluted 3-fold to 10 concentrations and transferred to the test plate.
(§5) 2) Human PI3K p110α/p85α, human PI3K p110α (E542K)/p85α, human PI3K p110α (E545K)/p85α or human PI3K p110α (H1047R)/p85α and assay buffer (10 μM phosphatidylinositol 4,5-bisphosphate and Mg/ATP) were incubated. The reaction was initiated by adding ATP solution and incubated for 30 min.
(§6) 3) After incubation for 30 minutes, the reaction was terminated by adding stop solution. The stop solution contained EDTA, biotinylated phosphatidylinositol-3,4,5-trisphosphate.
(§7) 4) Detection buffer was added, europium-tagged anti-GST monoclonal antibody, GST-tagged GRP1 PH domain, and streptavidin allophycocyanin.
(§8) 5) The plate was read and the HTRF value was calculated according to the formula HTRF=10000×(Em665 nm/Em620 nm). GraphPad Prism 5.0 software was used, and a S-type dosage-survival rate curve was drawn using a nonlinear regression model and IC50 value was calculated.

[3] = test system: HEC-1-B PIK3CA-mutated endometrial cancer cell line; test: CTG cell proliferation, HEC-1-B; type: cell-based; settings: read-out: Absolute IC50
Method: (2) Reagents • 1) FBS (fetal bovine serum) (purchased from ExCell, product number: FND500); • 2) McCoy's 5A medium (purchased from Gibco, product number: 12330-031); • 3) MEM medium (purchased from Hyclone, product number: SH30024.01). (3) Test Article and Positive Control Article • Test article: compound I; • Positive control article: Alpelisib, molecular weight: 441.47; solvent: DMSO; storage condition after dissolution: −20° C.; supplier: Shanghai TOPSCIENCE Biochemical Technology Co., Ltd., CAS number: 1217486-61-7; (4) The CTG Method was Used to Determine the Cell Proliferation IC50 of the Compound
as §1
Step 2: The initial concentration of administration of compound I and the control drug Alpelisib was 3 μM, serially diluted 3-fold, a total of 9 concentration gradients and a DMSO control, the final concentration of DMSO in each well was 0.1%, placed in a 37° C., 5% CO2 incubator for 72 hours.
Step 3: After 72 hours of drug treatment, 50 μL (½ culture volume) CTG solution that was melted and equilibrated to room temperature was added to each well according to the CTG operation instruction. The solution was mixed well with a microplate shaker for 2 minutes, and placed at room temperature. After 10 minutes, the fluorescence signal value was measured with an Envision2104 plate reader.
as §2

human PI3K p110α/p85α = target: T2, human PI3K p110α/p85α (Homo sapiens, UniProt P42336); test: HTRF kinase activity assay, wild-type PI3Kα; type: biochemical
T2 construct: purchased Promega V1721
T2 sequence (P42336 whole entry): as the sequence (P42336 whole entry E545K) above, with K545E counted along it
T2 sequence (P27986 whole entry partner): as the sequence (P27986 whole entry partner) above
Method: as §3, §4, §5, §6, §7, §8

IC50 ([1]; listed as compound I): < 1000 nM | IC50 [1]: 21 nM | IC50 [2]: 1 nM | IC50 ([3]; 72 hours): 52 nM | IC50 ([3]; Homo sapiens, HEC-1B, 72 h): ≤ 100 nM | IC50 (human PI3K p110α/p85α): 1 nM
SMILES: COCCOc1cnc2ccc(-c3cnc(OC)c(NS(=O)(=O)c4sc(C)nc4C)c3)cn2c1=O [Compound I]
